The values below come from article PMC10669118 (2023).

The subject of experiment [1] is STAT (HEX) (DNA, G4) GGGCTGGGGATGGGGAGGGGG
Kind of experiment: microscale thermophoresis. To be noted: 10 mM KCl, 20 mM sodium phosphate; pH 7.4, 22 °C, DMSO and Tween 20; said to be submicromolar.

Experiment [2] relates to 22AG (DNA, G4) AGGGTTAGGGTTAGGGTTAGGG
Kind of experiment: FRET melting. To be noted: 10 mM KCl, 20 mM sodium phosphate, pH 7.4, 20 µM compound; for binding: 1 µM DNA (legend of Figure 3 prints them reversed).

The test system of experiment [3] is 22CTA (DNA, G4) AGGGCTAGGGCTAGGGCTAGGG
Kind of experiment: FRET melting. The settings on record: 10 mM KCl, 20 mM sodium phosphate, pH 7.4, 20 µM compound.

For experiment [4], the system named is cKit1 (HEX) (DNA, G4) GGGAGGGCGCTGGGAGGAGGG
The experiment can be described thus: microscale thermophoresis. The settings on record: 10 mM KCl, 20 mM sodium phosphate; pH 7.4, 22 °C, DMSO and Tween 20; said to be submicromolar.

For experiment [5], the system named is cMyc (DNA, G4) TGAGGGTGGGTAGGGTGGGTAA
The experiment can be described thus: FRET melting. To be noted: 10 mM KCl, 20 mM sodium phosphate; pH 7.4; 20 µM compound, 1 µM DNA.

In experiment [6] the test system is cKit1 (DNA, G4) GGGAGGGCGCTGGGAGGAGGG
The experiment can be described thus: FRET melting. The settings on record: 10 mM KCl, 20 mM sodium phosphate; pH 7.4; 20 µM compound, 1 µM DNA.

For experiment [7], the system named is Ct1 (DNA, G4) GGTGACAGGGGTATGGGGAGGGG
The experiment can be described thus: FRET melting. To be noted: 10 mM KCl, 20 mM sodium phosphate; pH 7.4; 20 µM compound, 1 µM DNA.

The subject of experiment [8] is BclT (DNA, G4) GGGGGCCGTGGGGTGTGAGCTGGGG
The experiment can be described thus: FRET melting. The settings on record: 10 mM KCl, 20 mM sodium phosphate; pH 7.4; 20 µM compound, 1 µM DNA.

In experiment [9] the test system is STAT (DNA, G4) GGGCTGGGGATGGGGAGGGGG
The experiment can be described thus: FRET melting. The settings on record: 10 mM KCl, 20 mM sodium phosphate; pH 7.4; 20 µM compound, 1 µM DNA.

For experiment [10], the system named is VEGF (DNA, G4) GGGAGGGTTGGGGTGGG
The experiment can be described thus: FRET melting. To be noted: 25 mM LiCl, 5 mM sodium phosphate; pH 7.4; 20 µM compound, 1 µM DNA.

Experiment [11] concerns Hair (DNA, hairpin) GTATAGCTATTTTTATAGCTATA
The experiment can be described thus: FRET melting. To be noted: 10 mM KCl, 20 mM sodium phosphate; pH 7.4; 20 µM compound, 1 µM DNA.

`CN(C)CCNC(=O)COc1ccc2c(c1)nc1ccn(CC(=O)NCCN(C)C)c(=O)n12`: in experiment [1], the Kd was 400 nM.
As for `N=C(N)NCCNC(=O)COc1cc2nc3ccn(CC(=O)NCCNC(=N)N)c(=O)n3c2c2ccccc12`, the binding result in experiment [2] is “yes”.
As to `NCCNC(=O)COc1cc2nc3ccn(CC(=O)NCCN)c(=O)n3c2c2ccccc12`, the binding entry in [2] and in [3] (1 µM DNA (legend of Figure 3 prints them reversed)) was “yes” in each case. The Kd in experiment [4] came out at 500 nM.
Take `NCCNC(=O)Cn1ccc2nc3cc(O)c4ccccc4c3n2c1=O`: the Kd in [4] was 600 nM; in experiment [1], 500 nM.
In the case of `NCCNC(=O)Cn1ccc2nc3cc(O)ccc3n2c1=O`, the thermal shift (ΔTm) in experiment [2] (1 µM DNA) is 1 ± 2 °C; in experiment [5] it was 1 ± 2 °C; in [6] it was 3 ± 2 °C; in experiment [7], 2 ± 2 °C; in [8], 0 ± 2 °C; in experiment [9] it was 1 ± 2 °C. Besides, the thermal shift (ΔTm) in experiment [10] was 1 ± 2 °C; in [3] (1 µM DNA), 1 ± 2 °C; in experiment [11], -1 ± 2 °C.
